Results taken from US10328077B2 (CELGENE CORPORATION, priority 2016, dated 2019).

How the values were obtained:
[1] = tested on: CD11b expression in THP-1 (AML) cells; assay: LSD-1 CD11b cellular assay (flow cytometry); conditions: Homo sapiens, THP-1, 96 h, read-out: THP-1 IC50
human LSD-1 = human LSD-1 (Homo sapiens (Human), UniProt O60341); assay: In vitro enzyme inhibition assay LSD-1 (TR-FRET); assay type: biochemical; conditions: TR-FRET, H3K4me1-biotin labeled peptide
Excerpt: This assay determines the ability of a test compound to inhibit LSD-1 demethylase activity.
The enzymatic assay of LSD-1 activity is based on Time Resolved-Fluorescence Resonance Energy Transfer (TR-FRET) detection.

[2] = tested on: Kasumi-1 AML cancer cell line; assay: Kasumi-1 AML cell line proliferation assay (Cell-MTS); assay type: cell-based; conditions: Homo sapiens, 168 hours
Excerpt: Colorimetric cellular assay to assess the ability of LSD-1 small molecule inhibitors to effect the proliferation of the established AML cancer cell line Kasumi-1
This Cell-MTS assay is a 7-day plate based colorimetric assay which quantifies the amount of newly generated NADH in the presence and absence of test compound. These NADH levels are used as a proxy for the quantification of cancer cell proliferation.
The established cancer cell line Kasumi-1 with a verified p53 mutation were purchased from American Type Culture Collection (ATCC) and routinely passaged according to ATCC published protocols. For routine assay these cells were seeded at a density of 20,000 cells per 96-well. […] At the end of this compound incubation period, 80 μl of media is removed and 20 μL of CellTiter 96® AQueous Non-Radioactive Cell Proliferation Assay solution (Promega) is added. The cells are incubated until the OD490 is >0.6. IC50 values are calculated using the IDBS XLfit software package and include background subtracted OD490 values and normalization to DMSO controls.

IC50 [1] [nM]	IC50 (human LSD-1) [nM]	IC50 [2] [nM]	Compound
< 100	< 100	< 100	Cn1c(N2CCC(N)CC2)nc(-c2ccc(C#N)c(F)c2)c(-c2ccc3[nH]ncc3c2)c1=O [Example 88, 4-[2-(4-aminopiperidin-1-yl)-5-(1H-indazol-5-yl)-1-methyl-6-oxopyrimidin-4-yl]-2-fluorobenzonitrile]
< 100	–	< 100	Cn1c(N2CCC(N)CC2)nc(-c2ccc(C#N)c(F)c2)c(-c2ccc3c(cnn3C)c2)c1=O [Example 35, 4-[2-(4-amino-piperidin-1-yl)-1-methyl-5-(1-methyl-1H-indazol-5-yl)-6-oxo-1,6-dihydro-pyrimidin-4-yl]-2-fluoro-benzonitrile]
< 100	< 100	< 100	CN(C)C1CCN(c2nc(-c3ccc(C#N)c(F)c3)c(-c3ccc4nn(C)cc4c3)c(=O)n2C)CC1 [Example 71, 4-[2-(4-dimethylamino-piperidin-1-yl)-1-methyl-5-(2-methyl-2H-indazol-5-yl)-6-oxo-1,6-dihydro-pyrimidin-4-yl]-2-fluoro-benzonitrile]
< 100	< 100	< 100	Cn1cc2cc(-c3c(-c4ccc(C#N)c(F)c4)nc(N4CCCNCC4)n(C)c3=O)ccc2n1 [Example 66, 4-[2-[1,4]diazepan-1-yl-1-methyl-5-(2-methyl-2H-indazol-5-yl)-6-oxo-1,6-dihydro-pyrimidin-4-yl]-2-fluoro-benzonitrile]
< 100	< 100	< 100	Cn1c(N2CCC(N)CC2)nc(-c2ccc(C#N)c(F)c2)c(-c2cnn(CC(F)(F)F)c2)c1=O [Example 34, 4-{2-(4-amino-piperidin-1-yl)-1-methyl-6-oxo-5-[1-(2,2,2-trifluoro-ethyl)-1H-pyrazol-4-yl]-1,6-dihydro-pyrimidin-4-yl}-2-fluoro-benzonitrile]
< 100	–	< 100	Cn1cc2cc(-c3c(-c4ccc(C#N)cc4)nc(N4CCC(N)CC4)n(C)c3=O)ccc2n1 [Example 24, 4-[2-(4-aminopiperidyl)-1-methyl-5-(2-methyl(2H-indazol-5-yl))-6-oxohydropyrimidin-4-yl]benzenecarbonitrile]
< 100	< 100	< 100	CNC1CCN(c2nc(-c3ccc(C#N)c(F)c3)c(-c3ccc4nn(C)cc4c3)c(=O)n2C)CC1 [Example 65, 2-fluoro-4-[1-methyl-2-(4-methylamino-piperidin-1-yl)-5-(2-methyl-2H-indazol-5-yl)-6-oxo-1,6-dihydro-pyrimidin-4-yl]-benzonitrile]
< 100	< 100	< 100	COc1ccc(-c2c(-c3ccc(C#N)cc3)nc(N3CCC(N)CC3)n(C)c2=O)cn1 [Example 3, 4-[2-(4-amino-piperidin-1-yl)-5-(6-methoxy-pyridin-3-yl)-1-methyl-6-oxo-1,6-dihydro-pyrimidin-4-yl]-benzonitrile]
< 100	< 100	100 to 1000	Cc1ccc(-c2c(-c3ccc(C#N)cc3)nc(N3CCC(N)CC3)n(C)c2=O)cn1 [Example 4, 4-[2-(4-amino-piperidin-1-yl)-1-methyl-5-(6-methyl-pyridin-3-yl)-6-oxo-1,6-dihydro-pyrimidin-4-yl]-benzonitrile]
< 100	< 100	< 100	COc1ccc(-c2c(-c3ccc(C#N)c(F)c3)nc(N3CCC(N)CC3)n(C)c2=O)cc1 [Example 6, 4-[2-(4-amino-piperidin-1-yl)-5-(4-methoxy-phenyl)-1-methyl-6-oxo-1,6-dihydro-pyrimidin-4-yl]-2-fluoro-benzonitrile]
< 100	< 100	< 100	Cc1ccc(-c2c(-c3ccc(C#N)c(F)c3)nc(N3CCC(N)CC3)n(C)c2=O)cn1 [Example 9]
< 100	< 100	–	Cn1c(N2CCC(N)CC2)nc(-c2ccc(C#N)c(F)c2)c(-c2ccc(N)cc2)c1=O [Example 89, 4-[5-(4-aminophenyl)-2-(4-aminopiperidin-1-yl)-1-methyl-6-oxopyrimidin-4-yl]-2-fluorobenzonitrile]
